We go through one molecule from paper doi:10.1101/2025.03.10.642353v1, “Deciphering the role of histo-blood group antigens in bovine rotavirus C infection” (biorxiv, 2025).

In this experiment the target is T1, bovine P[3] RVC VP8* (Bovine rotavirus C, UniProt L0N4C6).
T1 construct: gene VP4; VP8* galectin-like domain of polyprotein-like spike VP4 (trypsin-cleaved), residues 64-228 (E64-R228), synthetic codon-optimised gene, pGEX-2T N-terminal GST, E. coli BL21(DE3)
Put plainly: STD NMR (binding epitope mapping). Particulars: PBS in D2O, pH 7.4, 278 K; 50 uM protein, 2 mM ligand; both anomers of reducing GlcNAc. The source says:
STD NMR (binding epitope mapping) on bovine P[3]

As to `CC(=O)N[C@H]1C(O)O[C@H](CO)[C@@H](O[C@@H]2O[C@H](CO)[C@H](O)[C@H](O)[C@H]2O[C@@H]2O[C@@H](C)[C@@H](O)[C@@H](O)[C@@H]2O)[C@@H]1O` (stereo partly drawn) [H2, Fuc-α1,2-Gal-β1,4-GlcNAc], the “STD NMR (binding epitope mapping)” value was “All performed STD NMR experiments showed clear signals confirming the binding of H2 antigen”.
